Publication PMC6838683, “Discovery of Human Signaling Systems: Pairing Peptides to G Protein-Coupled Receptors” (Cell, 2019)
No end group written: not given here.

Assays:
GPR1 [1] = target: T1, GPR1 (Homo sapiens, UniProt P46091); test: β-arrestin recruitment (Tango), validation; assay type: cell-based; design: host or cells: HTLA cells (HEK293-derived)
T1 sequence (P46091 1-355): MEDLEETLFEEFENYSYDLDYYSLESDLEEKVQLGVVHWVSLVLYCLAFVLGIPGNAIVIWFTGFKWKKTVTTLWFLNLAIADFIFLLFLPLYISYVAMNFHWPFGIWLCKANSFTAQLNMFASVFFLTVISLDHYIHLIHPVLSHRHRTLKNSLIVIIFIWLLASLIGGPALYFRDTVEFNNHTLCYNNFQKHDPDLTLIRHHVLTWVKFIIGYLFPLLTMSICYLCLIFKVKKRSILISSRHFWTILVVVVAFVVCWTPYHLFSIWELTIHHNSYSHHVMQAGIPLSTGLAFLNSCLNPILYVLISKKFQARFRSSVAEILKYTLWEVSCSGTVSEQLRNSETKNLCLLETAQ

GPR1 [2] = target: T1, GPR1; test: Real-time receptor internalization, validation; assay type: cell-based; design: host or cells: HTLA cells (HEK293-derived)
Excerpt: (§1) Supplement mmc7.xlsx, sheet "Peptide validation data" | column: Comment

GPR1 [3] = target: T1, GPR1; test: Dynamic mass redistribution (DMR), validation; assay type: cell-based; design: host or cells: HTLA cells (HEK293-derived)
Excerpt: as §1

GPR1 [4] = target: T1, GPR1; test: β-arrestin recruitment (PathHunter); assay type: cell-based; conditions: for Emax, PathHunter (fold over basal) / pEC50, PathHunter (fold over basal): GPR1, mean, SEM and n
Procedure: PathHunter eXpress Assays (DiscoverX) were performed in 384-well format according to the manufacturer’s recommendations. GPR1 cells were incubated with peptides for 90 min and luminescence measured using an EnSpire 2300 Multimode plate reader (PerkinElmer).

human GPCRs = tested on: human GPCRs; design: method as in Guide to Pharmacology database; conditions: receptor gasr_human (CCKBR, P32239); max reported value; ref Guide to Pharmacology database; cited from earlier work
Excerpt: Supplement mmc1.xlsx, sheet "HumanGPCRLigands" | column: pKi_value; pKd_value; pEC50_value; pIC50_value

NPFF2 = test: β-arrestin recruitment (Tango), known peptide receptors; assay type: cell-based, human; conditions: endogenous ligand(s) included in peptide library
Excerpt: Supplement mmc6.xlsx, sheet "Peptide GPCR controls" | column: Confirmed?

Row | Molecule | Emax, Tango (fold over basal) (GPR1 [1]; GPR1, mean, SEM and n) | EC50 (GPR1 [1]; HTLA cells transiently transfected, overnight stimulation, luciferase, mean ± SEM of 3-4 independent experiments in triplicate, read-out: pEC50, β-arrestin recruitment (Tango), GPR1 (converted)) [µM] | EC50 (GPR1 [1]; pEC50, Tango (fold over basal), GPR1, mean, SEM and n) [µM] | Comment on response, Internalization (AUC); Emax and pEC50 n.d. (GPR1 [2]) | Comment on response, DMR (AUC); Emax and pEC50 n.d. (GPR1 [3]) | Emax, PathHunter (fold over basal) (GPR1 [4]) | pEC50, PathHunter (fold over basal) (GPR1 [4]) | EC50 (GPR1 [4]; PathHunter eXpress GPR1 cells, 90 min, luminescence, mean ± SEM of 3-4 independent experiments in triplicate, read-out: pEC50, β-arrestin recruitment (PathHunter), GPR1 (converted)) [µM] | pEC50, Tango (fold over basal) (GPR1 [1]; GPR1, mean, SEM and n) | pIC50_value (human GPCRs) | Confirmed? (confirmation of b-arrestin recruitment) (NPFF2)
1 | CSCC[C@H](NC(=O)[C@H](Cc1c[nH]c2ccccc12)NC(=O)CNC(=O)[C@H](Cc1ccc(O)cc1)NC(=O)[C@H](C)NC(=O)[C@H](CCC(=O)O)NC(=O)[C@H](CCC(=O)O)NC(=O)[C@H](CCC(=O)O)NC(=O)[C@H](CCC(=O)O)NC(=O)[C@H](CCC(=O)O)NC(=O)[C@H](CC(C)C)NC(=O)[C@H](Cc1c[nH]c2ccccc12)NC(=O)[C@@H]1CCCN1C(=O)CNC(=O)[C@@H](N)CCC(N)=O)C(=O)N[C@@H](CC(=O)O)C(=O)N[C@@H](Cc1ccccc1)C(N)=O [Peptide 118, Gastrin-17, reference compound] | 9.8 | > 10 | 102 | No response; known CCK receptor agonist | No response; known CCK receptor agonist | 3.5 | 5.24 | 6.31 | – | – | –
2 | KAPSGRMSIVKNLQNLDPSHRISDRDYMGWMDF [Peptide 194, cholecystokinin (CCK-33), reference compound] | 15.0 | – | – | No response; Known CCK receptor agonist | No response; Known CCK receptor agonist | 5.7 | 8.01 | – | 5.28 | 8.8 | –
3 | KRSFSGFGSPLDRLSAGSVDHK [Processed Osteocrin_(-2-19)] | 14.4 | – | – | No response | No response | 8.0 | 6.18 | – | 5.60 | – | –
4 | Neuropeptide RFRP-1 (MPHSFANLPLRF-NH2) | – | – | – | – | – | – | – | – | – | – | No
5 | Neuropeptide SF (SQAFLFQPQRF-NH2) | – | – | – | – | – | – | – | – | – | – | No
